In assay [1] the test system is Plasmodium falciparum strain NF54. The assay is described as follows: Growth inhibition of Plasmodium falciparum NF54 (chloroquine-sensitive) in vitro, [G-3H]-hypoxanthin incorporation. It is filed as cell-based. To be noted: chloroquine-sensitive strain NF54, 72 h, read-out: IC50 for P. falciparum NF54. The essentials: (§1)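 Asynchronous intraerythrocytic cultures in human A+ erythrocytes (0.7% parasitemia, 2.5% suspension) in RPMI 1640 with HEPES, NaHCO3 and human serum, exposed to compound titrated over 6-7 steps for 72 h at 37° C, 3% O2. Growth by [G-3H]-hypoxanthin incorporation against untreated controls; IC50 by logit regression.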

In a further assay the test system is Plasmodium falciparum K1. As to the kind of experiment: Growth inhibition of Plasmodium falciparum K1 (chloroquine-resistant) in vitro, [G-3H]-hypoxanthin incorporation. It is filed as cell-based, Plasmodium falciparum (strain K1). As to conditions: for IC50: Plasmodium falciparum, K1, 72 h, read-out: IC50 for P. falciparum K1; for Resistance index: ratio of the IC50 for K1 and the IC50 for NF54. The essentials:
as §1

Another assay relates to Plasmodium berghei. The assay is described as follows: animal or person. It is filed as in vivo, Plasmodium berghei (strain ANKA) in mice. To be noted: Plasmodium berghei, mice, blood smears 48 h after treatment. The method, boiled down:
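Male albino mice (~25 g) infected i.v. on D0 with P. berghei ANKA (0.2 ml of 10^8 parasitized erythrocytes/ml); single s.c. and p.o. dose 24 h post-infection, 10 mg/kg screen then titration.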

Where [2] appears, read: po, single peroral dose of 10 mg/kg, read-out: Growth inhibition in % after po administration (GI%, percentage reduction of the parasitemia).
Setting [3] is: sc, single subcutaneous dose of 10 mg/kg, read-out: Growth inhibition in % after sc administration (GI%, percentage reduction of the parasitemia).

Molecules are shown by their SMILES. ≈ marks a conversion by molar mass, not a printed value. Structures can show the parent of a compound that is named as a salt. Where two headings read alike, the source gives them in different places.

What is called IC50 is the concentration at which inhibition is half-maximal. For the compound `Cl.Cl.Fc1cccc(F)c1CN[C@H]1CC[C@H](Nc2ccnc3cc(Cl)ccc23)CC1` [Example 114, trans-N1-(7-Chloro-quinolin-4-yl)-N4-(2,6-difluoro-benzyl)-cyclohexane-1,4-diamine dihydrochloride], the IC50 in assay [1] amounted to 0.0029 mg/L; in the assay on Plasmodium falciparum K1 it was 0.0084 mg/L. Also, in the assay with Plasmodium falciparum K1, the Resistance index was 2.9. Further, the inhibition in vivo at 10 mg/kg in the assay on Plasmodium berghei (setting [2]) amounted to 99%; in the assay on Plasmodium berghei (setting [3]), 99.9%.

Take `CC(C)(CNc1ccnc2cc(Cl)ccc12)NCc1ccc(F)c(Cl)c1` [Example 6, N1-(7-Chloro-quinolin-4-yl)-N2-(3-chloro-4-fluoro-benzyl)-2-methyl-propane-1,2-diamine]: the IC50 in assay [1] came to 0.0103 mg/L (≈ 0.0263 µM); in the assay on Plasmodium falciparum K1, 0.0145 mg/L (≈ 0.037 µM). The Resistance index in the assay on Plasmodium falciparum K1 came out at 1.4. The inhibition in vivo at 10 mg/kg turned out to be 99.7% in the assay on Plasmodium berghei (setting [2]) and 95% with Plasmodium berghei (setting [3]).

Turning to `COc1cc(CCN[C@H]2CC[C@H](Nc3ccnc4cc(Cl)ccc34)CC2)ccc1O.Cl.Cl` [Example 104, trans-4-{2-[4-(7-Chloro-quinolin-4-ylamino)-cyclohexylamino]-ethyl}-2-methoxy-phenol dihydrochloride], the IC50 in assay [1] stood at 0.0036 mg/L; with Plasmodium falciparum K1, 0.0202 mg/L. Also, in the assay on Plasmodium falciparum K1, the Resistance index was found to be 5.6. For the same compound, the inhibition in vivo at 10 mg/kg in the assay with Plasmodium berghei (setting [2]) is 63%; in the assay on Plasmodium berghei (setting [3]), 100%.

As for `Cl.Cl.O=[N+]([O-])c1cccc(Cl)c1CN[C@H]1CC[C@@H](Nc2ccnc3cc(Cl)ccc23)CC1` [Example 22, cis-N1-(2-Chloro-6-nitro-benzyl)-N4-(7-chloro-quinolin-4-yl)-cyclohexane-1,4-diamine dihydrochloride], the IC50 in assay [1] was 0.0116 mg/L; in the assay with Plasmodium falciparum K1, 0.0189 mg/L. In addition, the Resistance index in the assay with Plasmodium falciparum K1 worked out at 1.6. The values for the inhibition in vivo at 10 mg/kg with Plasmodium berghei (setting [2]) and in the assay on Plasmodium berghei (setting [3]) were 42% and 84%, respectively.

`COc1ccc(CCN[C@H]2CC[C@H](Nc3ccnc4cc(Cl)ccc34)CC2)cc1OC.Cl.Cl` [Example 88, trans-N1-(7-Chloro-quinolin-4-yl)-N4-[2-(3,4-dimethoxy-phenyl)-ethyl]-cyclohexane-1,4-diamine dihydrochloride]: the figures for the IC50 (in assay [1]; with Plasmodium falciparum K1) were 0.0074 mg/L and 0.0214 mg/L, respectively. Besides, the Resistance index in the assay on Plasmodium falciparum K1 was 2.9. Further, the inhibition in vivo at 10 mg/kg with Plasmodium berghei (setting [2]) stood at 66%; in the assay on Plasmodium berghei (setting [3]) it was 99.9%.

On to `COc1cc(CNC(C)(C)CNc2ccnc3cc(Cl)ccc23)ccc1O.Cl.Cl` [Example 33, N1-(7-Chloro-quinolin-4-yl)-N2-(4-hydroxy-3-methoxy-benzyl)-2-methyl-propane-1,2-diamine dihydrochloride], for which the results for the IC50 (in assay [1]; with Plasmodium falciparum K1) were 0.0063 mg/L and 0.0071 mg/L, respectively. For the same compound, in the assay on Plasmodium falciparum K1, the Resistance index stood at 1.1. The inhibition in vivo at 10 mg/kg with Plasmodium berghei (setting [2]) was determined as 10%; in the assay with Plasmodium berghei (setting [3]), 97%.

Consider `COc1cc(CN[C@H]2CC[C@@H](Nc3ccnc4cc(Cl)ccc34)CC2)cc(OC)c1.Cl.Cl` [Example 82, cis-N1-(7-Chloro-quinolin-4-yl)-N4-(3,5-dimethoxy-benzyl)-cyclohexane-1,4-diamine dihydrochloride], for which the IC50 in assay [1] is 0.0057 mg/L; in the assay on Plasmodium falciparum K1, 0.0085 mg/L. For the same compound, in the assay on Plasmodium falciparum K1, the Resistance index was 1.5. Besides, the inhibition in vivo at 10 mg/kg with Plasmodium berghei (setting [2]) and in the assay on Plasmodium berghei (setting [3]) was 99.9% each time.

For the compound `CC(C)(CNc1ccnc2cc(Cl)ccc12)NCc1ccc(Cl)cc1` [Example 25, N1-(7-Chloro-quinolin-4-yl)-N2-(4-chloro-benzyl)-2-methyl-propane-1,2-diamine dihydrochloride], the IC50 stood at 0.0173 mg/L in assay [1] and 0.0129 mg/L with Plasmodium falciparum K1. In the assay with Plasmodium falciparum K1, the Resistance index came to 0.7. In addition, the values for the inhibition in vivo at 10 mg/kg in the assay with Plasmodium berghei (setting [2]) and in the assay on Plasmodium berghei (setting [3]) were 99.2% and 99.8%, respectively.

For `CC(C)(CNc1ccnc2cc(Cl)ccc12)NCc1ccncc1` [Example 11, N1-(7-Chloro-quinolin-4-yl)-N2-(pyridin-4-yl-methyl)-2-methyl-propane-1,2-diamine], the 50% inhibitory concentration (IC50) was determined as 0.0293 mg/L (≈ 0.086 µM) in assay [1] and 0.048 mg/L (≈ 0.141 µM) in the assay on Plasmodium falciparum K1. In addition, the Resistance index in the assay with Plasmodium falciparum K1 was 1.6. The inhibition in vivo at 10 mg/kg with Plasmodium berghei (setting [2]) is 99.9%; in the assay with Plasmodium berghei (setting [3]) it was 99.8%.

For the compound `Cl.Cl.Clc1cccc(CN[C@H]2CC[C@@H](Nc3ccnc4cc(Cl)ccc34)CC2)c1` [Example 71, cis-N1-(7-Chloro-quinolin-4-yl)-N4-(3-chloro-benzyl)-cyclohexane-1,4-diamine dihydrochloride], the IC50 was determined as 0.0071 mg/L in assay [1] and 0.0093 mg/L with Plasmodium falciparum K1. In addition, the Resistance index in the assay on Plasmodium falciparum K1 is listed as 1.3. Moreover, the inhibition in vivo at 10 mg/kg in the assay on Plasmodium berghei (setting [2]) amounted to 99.8%; with Plasmodium berghei (setting [3]), 99.9%.

Turning to `Cl.Cl.N#Cc1ccc(CN[C@H]2CCCC[C@@H]2Nc2ccnc3cc(Cl)ccc23)cc1` [Example 67, (1S,2S)-N1-(7-Chloro-quinolin-4-yl)-N2-(4-cyano-benzyl)-cyclohexane-1,2-diamine dihydrochloride], the values for the IC50 (in assay [1]; in the assay on Plasmodium falciparum K1) were 0.0091 mg/L and 0.023 mg/L, respectively. The Resistance index in the assay with Plasmodium falciparum K1 came to 2.5. Besides, the inhibition in vivo at 10 mg/kg in the assay with Plasmodium berghei (setting [2]) and with Plasmodium berghei (setting [3]) was 99% throughout.

Turning to `Cl.Cl.N#Cc1ccc(CN[C@H]2CC[C@@H](Nc3ccnc4cc(Cl)ccc34)CC2)cc1` [Example 86, cis-N1-(7-Chloro-quinolin-4-yl)-N4-(4-cyano-benzyl)-cyclohexane-1,4-diamine dihydrochloride], the IC50 was 0.0056 mg/L in assay [1] and 0.007 mg/L with Plasmodium falciparum K1. Further, in the assay on Plasmodium falciparum K1, the Resistance index was 1.3. Further, the inhibition in vivo at 10 mg/kg in the assay with Plasmodium berghei (setting [2]) and with Plasmodium berghei (setting [3]) was 99.9% throughout.

`CC(C)(CNc1ccnc2cc(Cl)ccc12)NCc1ccc(Oc2ccccc2)cc1.Cl.Cl` [Example 43, N1-(7-Chloro-quinolin-4-yl)-N2-(4-phenoxy-benzyl)-2-methyl-propane-1,2-diamine dihydrochloride]: the 50% inhibitory concentration (IC50) in assay [1] worked out at 0.016 mg/L; with Plasmodium falciparum K1 it was 0.0181 mg/L. Moreover, the Resistance index in the assay with Plasmodium falciparum K1 is 1.1. The inhibition in vivo at 10 mg/kg in the assay on Plasmodium berghei (setting [2]) amounted to 30%; in the assay with Plasmodium berghei (setting [3]), 98%.

On to `COc1ccc(CN[C@H]2CC[C@@H](Nc3ccnc4cc(Cl)ccc34)CC2)c(O)c1.Cl.Cl` [Example 79, cis-N1-(7-Chloro-quinolin-4-yl)-N4-(2-hydroxy-4-methoxy-benzyl)-cyclohexane-1,4-diamine dihydrochloride], for which the IC50 amounted to 0.0041 mg/L in assay [1] and 0.0077 mg/L with Plasmodium falciparum K1. Besides, the Resistance index with Plasmodium falciparum K1 amounted to 1.9. The inhibition in vivo at 10 mg/kg was 99.9% in the assay with Plasmodium berghei (setting [2]) and 100% in the assay on Plasmodium berghei (setting [3]).

As to `CC(C)(CNc1ccnc2cc(Cl)ccc12)NCc1cccc(C(F)(F)F)c1` [Example 8, N1-(7-Chloro-quinolin-4-yl)-N2-(3-trifluoromethyl-benzyl)-2-methyl-propane-1,2-diamine], the IC50 in assay [1] was found to be 0.0161 mg/L (≈ 0.0395 µM); in the assay on Plasmodium falciparum K1 it was 0.0189 mg/L (≈ 0.0463 µM). In addition, the Resistance index with Plasmodium falciparum K1 stood at 1.2. For the same compound, the figures for the inhibition in vivo at 10 mg/kg in the assay with Plasmodium berghei (setting [2]) and in the assay with Plasmodium berghei (setting [3]) were 99% and 95%, respectively.

On to `CC(C)(CNc1ccnc2cc(Cl)ccc12)NCc1ccc(Cl)c(C(F)(F)F)c1` [Example 7, N1-(7-Chloro-quinolin-4-yl)-N2-(4-chloro-3-trifluoromethyl-benzyl)-2-methyl-propane-1,2-diamine], for which the values for the half-inhibitory concentration (IC50) (in assay [1]; in the assay on Plasmodium falciparum K1) were 0.024 mg/L (≈ 0.0543 µM) and 0.0349 mg/L (≈ 0.0789 µM), respectively. The Resistance index in the assay on Plasmodium falciparum K1 is on record as 1.5. Further, the inhibition in vivo at 10 mg/kg in the assay on Plasmodium berghei (setting [2]) was 96%; with Plasmodium berghei (setting [3]), 54%.

For `CCN(CC)c1ccc(CNC(C)(C)CNc2ccnc3cc(Cl)ccc23)cc1.Cl.Cl.Cl` [Example 46, N1-(7-Chloro-quinolin-4-yl)-N2-(4-diethylamino-benzyl)-2-methyl-propane-1,2-diamine trihydrochloride], the 50% inhibitory concentration (IC50) in assay [1] was determined as 0.0101 mg/L; with Plasmodium falciparum K1 it was 0.0126 mg/L. Besides, the Resistance index in the assay on Plasmodium falciparum K1 came out at 1.2. Also, the figures for the inhibition in vivo at 10 mg/kg with Plasmodium berghei (setting [2]) and with Plasmodium berghei (setting [3]) were 99.7% and 99%, respectively.

With `COc1cc(CN[C@H]2CC[C@H](Nc3ccnc4cc(Cl)ccc34)CC2)cc(OC)c1OC.Cl.Cl` [Example 112, trans-N1-(7-Chloro-quinolin-4-yl)-N4-(3,4,5-trimethoxy-benzyl)-cyclohexane-1,4-diamine dihydrochloride], the IC50 turned out to be 0.0043 mg/L in assay [1] and 0.0172 mg/L in the assay with Plasmodium falciparum K1. Besides, the Resistance index with Plasmodium falciparum K1 was 4.0. Besides, the values for the inhibition in vivo at 10 mg/kg with Plasmodium berghei (setting [2]) and in the assay on Plasmodium berghei (setting [3]) were 99% and 99.9%, respectively.

Consider `COc1cc(CN[C@H]2CC[C@H](Nc3ccnc4cc(Cl)ccc34)CC2)cc(OC)c1` [Example 106, trans-N1-(7-Chloro-quinolin-4-yl)-N4-(3,5-dimethoxy-benzyl)-cyclohexane-1,4-diamine], for which the IC50 came to 0.0015 mg/L (≈ 0.00352 µM) in assay [1] and 0.0044 mg/L (≈ 0.0103 µM) with Plasmodium falciparum K1. For the same compound, the Resistance index in the assay on Plasmodium falciparum K1 is 2.9. Besides, the inhibition in vivo at 10 mg/kg in the assay on Plasmodium berghei (setting [2]) was found to be 98%; in the assay on Plasmodium berghei (setting [3]) it was 99.5%.

On to `CC(C)(CNc1ccnc2cc(Cl)ccc12)NCc1cccc(C#N)c1.Cl.Cl` [Example 48, N1-(7-Chloro-quinolin-4-yl)-N2-(3-cyano-benzyl)-2-methyl-propane-1,2-diamine dihydrochloride], for which the IC50 in assay [1] stood at 0.0123 mg/L; with Plasmodium falciparum K1 it was 0.0159 mg/L. In the assay with Plasmodium falciparum K1, the Resistance index was determined as 1.3. For the same compound, the inhibition in vivo at 10 mg/kg in the assay with Plasmodium berghei (setting [2]) and in the assay on Plasmodium berghei (setting [3]) was 99.9% throughout.

For the origin of these results see patent US5948791A, “Quinoline derivatives for treating malaria” (Hoffmann-La Roche Inc., priority 1995, dated 1999).
